Experimental data from patent US10021881B2, “Vaporized administration of pesticides” (priority 2016, dated 2018).

Key:
[1] = tested on: Aspergillus flavus; assay: In vitro assay of vaporized pyrimethanil to inhibit pathogenic fungal growth (agar plates); format: cell-based; conditions: A. flavus, 3 days at 23° C.
Protocol: (§1) An in vitro assay was used to evaluate the ability of pyrimethanil to vaporize in order to control the infection of various pathogenic microorganisms when applied to the plants and plant parts. For in vitro experiments, a 12-well microtiter plate, 6-well, or a 10-cm Petri plates each containing 7.5 ml, 16.5 or 22 ml volumes, respectively, of half strength Potato Dextrose Agar (PDA) were prepared. Each well or plate was inoculated with 1 microliter (μL) of 1×10^5 spores/ml of the appropriate pathogenic spore suspension (e.g., Botrytis cinerea, Penicillium expansum, Glomerella cingulata, Penicillium digitatum, Aspergillus flavus, Colletotrichum acutatum, Fusarium sambucinum, and Geotrichum candidum) by spotting the pathogen on the center of the agar well or plate. The inoculated microtiter or Petri plate was then sealed with a breathable film. One set of triplicate plates for each pathogen was placed inside the bottom of an air-tight 36-L desiccator chamber and closed with secure clamps.
(§2) Evaporation of the acetone left behind solid crystals of pyrimethanil.
(§3) The tube of the device was attached to a port on the side of the chamber that allowed airflow of the pyrimethanil vapor into the chamber. The chamber was at room temperature during administration of the pyrimethanil. The chambers were then incubated for three (3) days at 23° C. After incubation, post-treatment growth inhibition of each in vitro pathogen was measured on the inoculated plates and compared to control samples.

[2] = tested on: Botrytis cinerea; assay: as above; format: cell-based; conditions: B. cinerea, 3 days at 23° C.
Protocol: as §1, §2, §3

[3] = tested on: Colletotrichum acutatum; assay: as above; format: cell-based; conditions: C. acutatum, 3 days at 23° C.
Protocol: as §1, §2, §3

[4] = tested on: Fusarium sambucinum; assay: as above; format: cell-based; conditions: F. sambucinum, 3 days at 23° C.
Protocol: as §1, §2, §3

[5] = tested on: Geotrichum candidum; assay: as above; format: cell-based; conditions: G. candidum, 3 days at 23° C.
Protocol: as §1, §2, §3

[6] = tested on: Glomerella cingulata; assay: as above; format: cell-based; conditions: G. cingulata, 3 days at 23° C.
Protocol: as §1, §2, §3

[7] = tested on: Penicillium digitatum; assay: as above; format: cell-based; conditions: P. digitatum, 3 days at 23° C.
Protocol: as §1, §2, §3

[8] = tested on: Penicillium expansum; assay: as above; format: cell-based; conditions: P. expansum, 3 days at 23° C.
Protocol: as §1, §2, §3

[9] = tested on: Penicillium digitatum; assay: In vivo assay of vaporized pyrimethanil to inhibit Penicillium digitatum in oranges
Protocol: An in vivo assay was used to evaluate the ability of vaporized pyrimethanil to control pathogenic infection of oranges by Penicillium digitatum. […] Each wound was then inoculated with 30 μL of 1×10^6 spores/mL suspension of P. digitatum.
Fruits were evaluated in order to observe growth of water-soaked lesions and fungal sporulation diameter (both measured in millimeters, mm).

[10] = tested on: Botrytis cinerea; assay: In vivo assay of vaporized pyrimethanil to inhibit Botrytis cinerea in blueberries; conditions: for Gray Mold Severity (0-4): scale 0 no disease to 4 exceptionally high
Excerpt: An in vivo assay was used to evaluate the ability of vaporized pyrimethanil to control pathogenic infection of blueberries by Botrytis cinerea.

[11] = 0.04 mg/L, Day 0 (after 3 days at 21° C.)
[12] = 0.04 mg/L, Day 1 (after 3 days at 21° C.)
[13] = 0.04 mg/L, Day 2 (after 3 days at 21° C.)
[14] = 0.2 mg/L, Day 0 (after 3 days at 21° C.)
[15] = 0.2 mg/L, Day 1 (after 3 days at 21° C.)
[16] = 0.2 mg/L, Day 2 (after 3 days at 21° C.)
[17] = 1 mg/L, Day 0 (after 3 days at 21° C.)
[18] = 1 mg/L, Day 1 (after 3 days at 21° C.)
[19] = 1 mg/L, Day 2 (after 3 days at 21° C.)
[20] = 0.01 mg/L, Day 0 (after 3 days at 21° C.)
[21] = 0.01 mg/L, Day 1 (after 3 days at 21° C.)
[22] = 0.01 mg/L, Day 2 (after 3 days at 21° C.)
[23] = 0.01 mg/L, Day 3 (after 3 days at 21° C.)
[24] = 0.03 mg/L, Day 0 (after 3 days at 21° C.)
[25] = 0.03 mg/L, Day 1 (after 3 days at 21° C.)
[26] = 0.03 mg/L, Day 2 (after 3 days at 21° C.)
[27] = 0.03 mg/L, Day 3 (after 3 days at 21° C.)
[28] = 0.1 mg/L, Day 0 (after 3 days at 21° C.)
[29] = 0.1 mg/L, Day 1 (after 3 days at 21° C.)
[30] = 0.1 mg/L, Day 2 (after 3 days at 21° C.)
[31] = 0.1 mg/L, Day 3 (after 3 days at 21° C.)
[32] = 0.3 mg/L, Day 0 (after 3 days at 21° C.)
[33] = 0.3 mg/L, Day 1 (after 3 days at 21° C.)
[34] = 0.3 mg/L, Day 2 (after 3 days at 21° C.)
[35] = 0.3 mg/L, Day 3 (after 3 days at 21° C.)

## Cc1cc(C)nc(Nc2ccccc2)n1 [pyrimethanil, 4,6-Dimethyl-N-phenylpyrimidin-2-amine]
[1]; 0.1 mg/L headspace
  Mycelial Growth Inhibition (%): 100.0%
[1]; 0.3 mg/L headspace
  Mycelial Growth Inhibition (%): 100.0%
[1]; 1 mg/L headspace
  Mycelial Growth Inhibition (%): 100.0%
[2]; 0.1 mg/L headspace
  Mycelial Growth Inhibition (%): 91.9%
[2]; 0.3 mg/L headspace
  Mycelial Growth Inhibition (%): 92.1%
[2]; 1 mg/L headspace
  Mycelial Growth Inhibition (%): 95.2%
[3]; 0.1 mg/L headspace
  Mycelial Growth Inhibition (%): 100.0%
[3]; 0.3 mg/L headspace
  Mycelial Growth Inhibition (%): 90.0%
[3]; 1 mg/L headspace
  Mycelial Growth Inhibition (%): 89.7%
[4]; 0.1 mg/L headspace
  Mycelial Growth Inhibition (%): 58.3%
[4]; 0.3 mg/L headspace
  Mycelial Growth Inhibition (%): 89.4%
[4]; 1 mg/L headspace
  Mycelial Growth Inhibition (%): 92.2%
[5]; 0.1 mg/L headspace
  Mycelial Growth Inhibition (%): 57.8%
[5]; 0.3 mg/L headspace
  Mycelial Growth Inhibition (%): 73.1%
[5]; 1 mg/L headspace
  Mycelial Growth Inhibition (%): 75.2%
[6]; 0.1 mg/L headspace
  Mycelial Growth Inhibition (%): 31.5%
[6]; 0.3 mg/L headspace
  Mycelial Growth Inhibition (%): 62.1%
[6]; 1 mg/L headspace
  Mycelial Growth Inhibition (%): 77.3%
[7]; 0.1 mg/L headspace
  Mycelial Growth Inhibition (%): 100.0%
[7]; 0.3 mg/L headspace
  Mycelial Growth Inhibition (%): 100.0%
[7]; 1 mg/L headspace
  Mycelial Growth Inhibition (%): 100.0%
[8]; 0.1 mg/L headspace
  Mycelial Growth Inhibition (%): 92.4%
[8]; 0.3 mg/L headspace
  Mycelial Growth Inhibition (%): 100.0%
[8]; 1 mg/L headspace
  Mycelial Growth Inhibition (%): 100.0%
[9]; [11]
  Fungal Sporulation (mm): 1.1 mm
  Water soaked Lesion (mm): 0.0 mm
[9]; [12]
  Fungal Sporulation (mm): 1.4 mm
  Water soaked Lesion (mm): 0.0 mm
[9]; [13]
  Fungal Sporulation (mm): 2.1 mm
  Water soaked Lesion (mm): 0.0 mm
[9]; [14]
  Fungal Sporulation (mm): 0.6 mm
  Water soaked Lesion (mm): 0.0 mm
[9]; [15]
  Fungal Sporulation (mm): 0.8 mm
  Water soaked Lesion (mm): 0.0 mm
[9]; [16]
  Fungal Sporulation (mm): 2.4 mm
  Water soaked Lesion (mm): 1.5 mm
[9]; [17]
  Fungal Sporulation (mm): 1.8 mm
  Water soaked Lesion (mm): 0.0 mm
[9]; [18]
  Fungal Sporulation (mm): 2.0 mm
  Water soaked Lesion (mm): 0.0 mm
[9]; [19]
  Fungal Sporulation (mm): 2.1 mm
  Water soaked Lesion (mm): 0.0 mm
[10]; [20]
  Gray Mold Incidence (%): 92.6%
  Gray Mold Severity (0-4): 0.9
[10]; [21]
  Gray Mold Incidence (%): 96.3%
  Gray Mold Severity (0-4): 1.1
[10]; [22]
  Gray Mold Incidence (%): 98.8%
  Gray Mold Severity (0-4): 1.4
[10]; [23]
  Gray Mold Incidence (%): 98.8%
  Gray Mold Severity (0-4): 2.1
[10]; [24]
  Gray Mold Incidence (%): 82.7%
  Gray Mold Severity (0-4): 0.7
[10]; [25]
  Gray Mold Incidence (%): 97.5%
  Gray Mold Severity (0-4): 1.1
[10]; [26]
  Gray Mold Incidence (%): 97.5%
  Gray Mold Severity (0-4): 1.3
[10]; [27]
  Gray Mold Incidence (%): 97.5%
  Gray Mold Severity (0-4): 1.7
[10]; [28]
  Gray Mold Incidence (%): 64.2%
  Gray Mold Severity (0-4): 0.5
[10]; [29]
  Gray Mold Incidence (%): 87.8%
  Gray Mold Severity (0-4): 0.9
[10]; [30]
  Gray Mold Incidence (%): 94.8%
  Gray Mold Severity (0-4): 1.1
[10]; [31]
  Gray Mold Incidence (%): 94.6%
  Gray Mold Severity (0-4): 1.7
[10]; [32]
  Gray Mold Incidence (%): 22.2%
  Gray Mold Severity (0-4): 0.2
[10]; [33]
  Gray Mold Incidence (%): 33.8%
  Gray Mold Severity (0-4): 0.2
[10]; [34]
  Gray Mold Incidence (%): 51.2%
  Gray Mold Severity (0-4): 0.3
[10]; [35]
  Gray Mold Incidence (%): 52.0%
  Gray Mold Severity (0-4): 0.3
